“Also recorded” adds a separate entry of the source.
Experiments:
long chain DNA (pUC-I′) = experiment: Long chain DNA (pUC-I′) alkylation, 24 hours, sequence gel electrophoresis; format: biochemical; conditions: for sequence-specific alkylation of long chain DNA: 100 nM to 12.5 nM, 23° C.
Method: The reaction of the hairpin polyamides 1 and 12 to 14 with a DNA was investigated using a long chain DNA (pUC-I′). The alkylation reaction was continued for 24 hours and a sequence gel electrophoresis was conducted for the analysis.
On the other hand, the alkylation of ImPyPy-γ-ImPyPyDu86 (12) was not observed at 100 nM to 12.5 nM (lanes 5 to 8). […] In the description made above or below, a -γ- means a γ-aminobutyric acid residue.
A DNA fragment (pUC-I′) was synthesized by a PCR method using pUC 18 as a template together with a 5′-texas red-labeled 20 base pair primer: 5′-[…]-3′ (pUC 18 forward, 780-799) and 20 base pair primer: 5′-[…]-3′ (pUC18 reverse, 1459-1478). The resultant DNA fragments were purified by filtration through a Suprec-02, and then examined for the UV absorption to determine the respective concentrations.
(§1) To 10 μl in total of 5 mM sodium phosphate buffer (pH7.0), a standard reaction solution containing 10 nM of the DNA fragment (pUC-I′) whose 5′-terminal had been labeled with the texas red, 10% (v/v) DMF and an agent at the concentration indicated in FIG. 1 was added in a microcentrifugation tube (Eppendorf) and allowed to stand for 24 hours at 23° C.
(§2) A bovine thymus DNA (1 mM, 1 μL) was added for quenching, and the mixture was shaken for 5 minutes at 90° C. The DNA obtained by centrifugation under reduced pressure was combined with 8 μl of a loading color (solution of *FUGENE* Red in DMF) and dissolved, and then shaken for 20 minutes at 94° C. Immediately after this, the mixture was cooled rapidly to 0° C., and a 2 μl aliquot was subjected to an electrophoresis on a 6% denature polyacrylamide gel using a HITACHI 5500-S DNA sequencer system.

DNA fragment (pUC-I′) = experiment: Alkylation of pUC-I′ DNA within a short period (5 minutes, 1 hour, 2 hours), gel electrophoresis; format: biochemical
Method: In order to investigate the difference in the reactivity between Compounds 1 and 13 in more detail, the alkylation within a short period was analyzed.
as §1, with “FIG. 2” for “FIG. 1”, “for 5 minutes, 1 hour and 2 hours, respectively” for “for 24 hours”
as §2, with “After each reaction time, a bovine” for “A bovine”

[1] = test system: DNA fragment of 450 base pairs; conditions: 450 base pair DNA fragment; cited from earlier work
[2] = test system: DNA oligomers 5′-CAAGTCAGAG/5′-CTCTGACTTG; experiment: Short chain DNA (10 bp) alkylation followed by HPLC; format: biochemical; conditions: for alkylation of DNA oligomer: 150 μM agent and DNA, 23° C.
Text: In order to clarify the reactive base site in an alkylation site, the alkylation with Polyamides 12, 13 and 14 was investigated by an HPLC using DNA oligomers 5′-CAAGTCAGAG/5′-CTCTGACTTG as substrates. […] Also by decomposing the oligomers by heating and investigating the degradation products of the oligomers by the method which the inventors reported previously (Tetrahedron Lett. 1990, 31, 7197; Tetrahedron Lett. 1993, 34, 2179 and the like), it was proven that the alkylation reaction occurred at the site indicated by an arrow. […] These findings may be attributable to the difference in the reactivity between the Du and the Du86 similarly to the reactivity on the long chain DNA.
A DNA oligomer synthesized by a DNA synthesizer was employed. To 50 μl in total of 50 mM sodium cacodylate buffer (pH7.0), a standard reaction solution containing 150 μM of the double-stranded DNA fragment, 10% (v/v) DMF and each agent of Compounds 1, 12, 13 and 14 (150 μM) was added in a microcentrifugation tube (Eppendorf) and allowed to stand at 23° C.
The advancement of the reaction was ensured by an HPLC using a *CHEMCOBOND* 5-ODS-H column (4.6×150 mm). The HPLC conditions are shown below.
[Linear gradient of 50 mM ammonium formate: 0-50% acetonitrile (0 to 40 min), flow rate: 1.0 mL/min, 254 nm].

[3] = test system: GFP protein expression coding region; experiment: Inhibition of mRNA transcription in GFP coding region with T7 promoter and T7 polymerase; format: biochemical; conditions: early stage experiment
Text: The condition of the experiment has not been established yet, and a further detailed analysis of the transcription inhibition mechanism is required. […] It leads to a breakthrough toward the development of a novel knockout gene method.

long chain DNA (pUC-II) = experiment: Long chain DNA (pUC-II) alkylation, 24 hours, sequence gel electrophoresis; format: biochemical; conditions: nM concentrations, 23° C.
Method: For the purpose of comparing the hairpin polyamides 14, 15 and 16, the DNA alkylation reaction employing a long chain DNA (pUC-II) was conducted.
With this regard, the inventors considered that this problem can be solved by replacing the Du86 with CBI: 1,2,9,9a-tetrahydrocyclopropa[c]benz[e]indole-4-one (22), the method for synthesizing which had already been reported by Boger et al. (J. Org. Chem. 1992, 57, 2873; J. Org. Chem. 1995, 60, 1271 and the like). The benefit of using CBI includes the ability of using commercially available 1,3-dihydroxynaphthalene as a starting material and the ability of providing both enantiomers by an optical resolution. Accordingly, the inventors newly synthesized Compound 23 by replacing the Du86 part of Compound 16 with CBI. Then the inventors evaluated the DNA-alkylating ability using a long chain DNA (pUC-II).
A DNA fragment (pUC-II) was synthesized by a PCR method using pUC 18 as a template together with a 5′-texas red-labeled 21 base pair primer: 5′-[…]-3′ (pUC 18 reverse, 1861-1881) and 18 base pair primer: 5′-TGTAAAACGACGGCCAGT-3′ (pUC18 forward, 378-395). The resultant DNA fragments were purified by filtration through a Suprec-02, and then examined for the UV absorption to determine the respective concentrations.
as §1, with “fragment (pUC-II)” for “fragment (pUC-I′)”, “FIG. 4” for “FIG. 1”
A bovine thymus DNA (1 mM, 1 μL) was added for quenching, and the mixture was shaken for 5 minutes at 90° C. The DNA obtained by centrifugation under reduced pressure was combined with 8 μl of a loading color (solution of *FUGENE* Red in DMF) and dissolved, and then shaken for 20 minutes at 94° C. […]

[4] = test system: 39 human cultured cancer cell lines; experiment: Cytostatic activity on 39 human cultured cancer cell lines; format: cell-based; set-up: mean IC50 values: scale not given here; conditions: for mean IC50 values: mean over 39 human cancer cell lines
Text: The first is the proportional relationship between the DNA-alkylating ability and the cytostatic activity (FIG. 8). For example, the mean IC50 values of ImPyDu (−4.59), ImPyDu86 (−5.95) and ImPyLDu86 (−8.25) were reduced gradually as the DNA-alkylating ability was increased.
A further interesting result was obtained when comparing the fingerprint patterns indicating the cytostatic activity of the hairpin sequence-specific alkylating agents ImPyPy-γ-ImPyLDu 36 (13) and ImPyPy-γ-ImPyPyLDu 36 (14) (FIG. 9). In general, a high correlation coefficient (r=0.75 to 1.0) is known to be obtained when comparing the fingerprint patterns between the drugs whose action mechanisms are analogous to each other, and in fact an extremely high analogy was observed among a DNA intercalator, doxorubicin, daunorubicin and epirubicin. […] The influence on the cytostatic activity attributable only to the difference in the base sequence-recognizing ability in spite of the analogy in the structure as observed with these Compound 13 and 14 has never been reported, and thus is one of the most important findings.

[5] = test system: DNA sequence PyG(A/T) CPu; conditions: cited from earlier work

## COC(=O)[C@]1(C)NC2=C(C1=O)[C@@]13C[C@@H]1CN(C(=O)c1cc(NC(=O)c4cc(NC(=O)c5nc(NC(=O)CCCNC(=O)c6cc(NC(=O)c7cc(NC(=O)c8nc(NC(C)=O)cn8C)cn7C)cn6C)cn5C)cn4C)cn1C)C3=CC2=O [Compound 1, ImPyPy-γ-ImPyPyDu]
Long chain DNA (pUC-I′); 24 hours
  sequence-specific alkylation of long chain DNA: reacted selectively at G in the 5′-GTCAG-3′ sequence in Site 3
DNA fragment (pUC-I′); one hour
  alkylation after short reaction time: no reaction
[1]
  reaction efficiency of sequence-specific DNA alkylation: 7%
  time for sequence-specific alkylation of DNA to complete: ≥ 1 week

## COC(=O)C1=C(C)CC2=C1[C@@]13C[C@@H]1CN(C(=O)/C=C/c1cc(NC(=O)c4nc(NC(=O)CCCNC(=O)c5cc(NC(=O)c6cc(NC(=O)c7nc(NC(C)=O)cn7C)cn6C)cn5C)cn4C)cn1C)C3=CC2=O [Compound 13, AcImPyPy-γ-ImPyLCPI]
Long chain DNA (pUC-I′); 100 nM (lane 9), 24 hours
  consumption of starting DNA: disappearance of almost all starting DNA
Long chain DNA (pUC-I′); 24 hours
  sequence-specific alkylation of long chain DNA: reacted at A in the GTCAG sequence of the site 3
DNA fragment (pUC-I′); 5 minutes
  alkylation after short reaction time: caused the alkylation
[2]
  reactivity on the DNA oligomers compared with other compounds: dramatically increased reactivity
[2]; after 5 minutes
  alkylation of DNA oligomer: 75%
[3]
  mRNA produced by transcription inhibition due to alkylation of the adenine in the 387 nt position: observed successfully

## COC(=O)c1c(C)[nH]c2c1[C@@]13C[C@@H]1CN(C(=O)/C=C/c1cc(NC(=O)c4cc(NC(=O)c5nc(NC(=O)CCCNC(=O)c6cc(NC(=O)c7cc(NC(=O)c8nc(NC(C)=O)cn8C)cn7C)cn6C)cn5C)cn4C)cn1C)C3=CC2=O [Compound 14, AcImPyPy-γ-ImPyPyLCPI]
Long chain DNA (pUC-I′); 24 hours
  sequence-specific alkylation of long chain DNA: slightly reduced reactivity when compared with Compound 13
[2]
  reactivity on the DNA oligomers compared with other compounds: almost equivalent to Compound 1 and poorer than Compound 13
[2]; after 2 hours
  alkylation of DNA oligomer: 46%
Long chain DNA (pUC-II)
  sequence-specific alkylation of pUC-II DNA: sequence-specific alkylation was observed at 5′-TGACCA-3′; also recorded: reactivity is far lower than those of Compounds 15 and 16

## COC(=O)c1c(C)[nH]c2c1[C@@]13C[C@@H]1CN(C(=O)/C=C/c1cc(NC(=O)c4cc(NC(=O)c5nc(NC(=O)CCNC(=O)c6cc(NC(=O)c7cc(NC(=O)c8nc(NC(=O)c9nccn9C)cn8C)cn7C)cn6C)cn5C)cn4C)cn1C)C3=CC2=O [Compound 16, H-ImImPyPy-γ-ImPyPyLCPI]
Long chain DNA (pUC-II)
  sequence-specific alkylation of pUC-II DNA: sequence-specific alkylation was observed at 5′-TGACCA-3′

## AcImImPyPy-γ-ImPyPyLDu86 [Compound 15]
Long chain DNA (pUC-II)
  sequence-specific alkylation of pUC-II DNA: sequence-specific alkylation was observed at 5′-TGACCA-3′

## AcImPyPy-γ-ImPyPyCPI [Compound 12]
Long chain DNA (pUC-I′); 24 hours
  sequence-specific alkylation of long chain DNA: not observed
Long chain DNA (pUC-I′); 10 μM
  alkylation of long chain DNA at elevated concentration: no occurrence of the alkylation
[2]
  reactivity on the DNA oligomers compared with other compounds: extremely poorer when compared with Compound 1
[2]; after 17 hours
  alkylation of DNA oligomer: 13%

## ImPyDu
[4]
  mean IC50 values: −4.59

## ImPyDu86
[4]
  mean IC50 values: −5.95

## ImPyLDu86
[4]
  mean IC50 values: −8.25
[5]
  alkylation induced, share of the compound employed: 70%

## ImPyPyLDu86
[4]
  change of cytostatic activity due to the vinyl linker between polyamide and Du86: dramatic increase in the cytostatic activity

## PyPyLDu86
[4]
  change of cytostatic activity due to the vinyl linker between polyamide and Du86: dramatic increase in the cytostatic activity

## PyPyPyLDu86
[4]
  change of cytostatic activity due to the vinyl linker between polyamide and Du86: dramatic increase in the cytostatic activity
